Results on six compounds are retold here after patent US6590123B2, “Aminobenzoic acid derivatives having anti-tumorigenic activity, methods of making and using the same” (Mount Sinai School of Medicine of New York University, priority 1998, dated 2003).

Where “and” joins values, the source holds several entries; their conditions need not be identical. Equal values may be shown once. Entries after “also recorded” stand apart in the source; their conditions may differ. Read-outs that look alike come from different tables or passages of the source. Where only a bound is given, the exact number is not on record here.

In data set [1] the test system is CEM cells. In words: Cytotoxicity, ID50 and ID90 by trypan blue staining. To be noted: for IC90 / IC50: Homo sapiens, CCRF-CEM; for IC90: 48 h; for IC50: 48 hr, NT = Non-toxic to CEM cells. The class given is cell-based. The protocol: CEM cells, a human T-cell lymphoblastoid leukemia cell line (American Type Culture Collection, Rockville, Md.), were cultured in suspension (Iscove's Dulbecco's Medium) supplemented with 10% heat inactivated fetal bovine serum (FBS), penicillin (250 μ/ml) and streptomycin (250 μl/ml). Cells were incubated at 37° C. in 5% C02 and only those cells in exponential growth were used.
CEM cells were seeded into 96-well microplates (Falcon, Oxnard, Calif.) at 10^5 cell per well, then treated with 0-10 μg/ml of the candidate compounds for 48 h at 37° C. yielding a total volume of 250 μ/well. Cell viability was assessed by trypan blue staining. ID50 and ID90 were defined as the concentration killing 50% or 90% of the cells in comparison with untreated controls, and calculated by non-linear regression analysis.
Cells in suspension culture were seeded into 96-well microplates (Falcon, Oxnard, Calif.) at 10^5 cell per well, followed, by treatment with 0-10 μg/ml of the candidate compounds for 48 hr at 37° C. with total volume of 250 μl per well. Cell viability was assessed by trypan blue exclusion.
The ID50 and ID90 was determined in duplicate in every set of experiments, and each experiment was repeated 3 times under identical conditions. ID50 and ID90 were defined as drug concentrations that induced 50% or 90% cellular death in comparison with untreated controls and calculated by non-linear regression analysis. […]

Data set [2] deals with CEM cells. In words: Morphology by microscopy (mitotic arrest, apoptosis, necrosis). The class given is cell-based, human. To be noted: for Activities of inducing Apoptosis / Activities of inducing Mitotic block / Activities of inducing Necrosis / morphological effect on leukemic cells: CEM leukemic cells; for Activities of inducing Apoptosis / Activities of inducing Mitotic block / Activities of inducing Necrosis: % of affected cells; for Mitotic arrest, %: % of mitotic cells after 24 h incubation, optical microscopy. The protocol:
Slides for examination of mitosis were prepared on a cytospin centrifuge (Shandon Southern Products Ltd, England ) at 700 g for 5 min. Slides were air dried, fixed in methanol and stained with Giemsa (Harleco, N.J.) at room temperature for 15 min. Cells in mitotic arrest were recognized by the disappearance of nuclear membrane and by the appearance of chromosomal scattering throughout the cytoplasm (reference 1). The % of mitotic cells were counted after 24 h incubation using optical microscopy. Apoptotic cells were identified using common criteria, i.e., shrinkage in cell size, chromatin condensation and fragmentation of the nucleus into discrete masses (reference 2).
Cell samples on slides were prepared by a Cytospin centrifuge (Shandon Southern Products Ltd, England) at 700 g for 5 min. The slides were air dried, fixed in methanol and stained with Giemsa (Harleco, N.J.) at room temperature for 15 min. Alterations of nuclei, membranes and morphological features were observed by light microscopy. Cells in mitotic phase were recognized by the appearance of their chromosomes dispersed in the cytoplasm, and by the disappearance of nuclear membrane. Apoptotic-cells were identified using previously defined criteria, i.e., shrinkage in cell size, chromatin condensation and fragmentation of the nucleus into discrete masses (references 2 & 3). Necrotic cells were differentiated from apoptotic cells by observing swollen cytoplasm and the disappearance of cell membrane prior to the destruction of the nucleus.

For data set [3], the system named is Purified tubulin. The data set is described as follows: Inhibition of microtubule assembly by spectrophotometry, cell free system. To be noted: cell free tubulin, up to 10 μg/ml. In kind it is biochemical, calf. The procedure: Purified tubulin was purchased from Sigma (St. Louis, Mo.). The effects of compounds 6, 7, 8, 9, paclitaxel and vinblastine on the microtubule assembly-disassembly process were determined using conditions recommended by the vendor. For assembly inhibition, 100 μl tubulin solution (500-600 μg protein/ml) was mixed gently with 400 μl reaction buffer containing 0.1 M MES (2-[N-morpholino]ethane sulfonic acid), 1 mM EGTA ([…]-N,N,N′,N′-tetraacetic acid), 0.5 mM MgCl2, 0.1 mM EDTA and 2.5 M gycerol at 37° C. Compounds 6, 7, 8, and 9 were next added to each sample at final concentrations of 10, 10, 1 and 1 μg/ml, respectively. After adding GTP to each sample to a final concentration of 1 mM, the microtubule assembly process was monitored by measuring the change of absorbance (OD) at 350 nm on a spectrophotometer (Ultrospec III, Pharmacia LKB, Uppsala, Sweden). A completed assembly process was observed within 40 min at room temperature. For disassembly inhibition, compounds 6, 7, 8, and 9 were added, at the above concentrations, to covets with repolymerized microtubules as described above, and incubated in melting ice. Changes of absorbance (OD) were monitored at 350 nm for 30 min until the OD values in the controls returned to the starting level, i.e., when the assembly-disassembly cycle was completed.
Purified tubulin from calf brain was purchased from Sigma (St. Louis, Mo.). The effects of 3-BAABU (3-bromoacetoamido, benzoylurea) on the microtubule assembly-disassembly process were determined using the conditions recommended by the vendor. For assembly inhibition, 100 μl tubulin solution (500-600 μg protein/ml) was mixed gently with 400 μl reaction buffer containing 0.1 M MES, 1 mM EGTA, 0.5 mM MgCl2, 0.1 mM EDTA and 2.5 M glycerol at 37° C. 3-BAABU, paclitaxel or vinblastine were then added to each sample cuvet at final concentrations of 3.3, 23 or 22 μM, respectively. After adding GTP to each sample to a final concentration of 1 mM, the microtubule assembly process was monitored by measuring the change of absorbance (OD) every 5 min at 350 nm on a spectrophotometer (Ultrospec III, Pharmacia LKB, Uppsala, Sweden). A completed assembly process was observed within 40 min at room temperature. For disassembly inhibition, 3-BAABU (3.3 μM), paclitaxel (23 μM) or vinblastine (22 μM) was added to a cuvet with repolymerized microtubules according to the method described above, and incubated in melting ice. Changes of absorbance (OD) were monitored at 350 nm for 30 min until the OD values in the controls returned to the starting level, i.e., completion of the assembly-disassembly cycle. Solvent solutions were used as control and had no effect in either the assembly or disassembly process.

Data set [4] has as its system CEM cells. In words: Cell cycle analysis by flow cytometry. In kind it is cell-based, human. To be noted: 8 h treatment, compound 6 2.5 μg/ml, compound 8 0.025 μg/ml, compound 9 0.005 μg/ml. On the technique in general: Flow cytometry measures light scatter and fluorescence of single cells or particles in a stream.
For data set [5], the system named is CEM cells. In words: DNA fragmentation by electrophoresis (apoptosis). In kind it is cell-based, human. To be noted: 48 hours, compound 8 0.025 μg/ml, compound 9 0.005 μg/ml, fluorine compound 5.0 μg/ml, chlorine compound 0.75 μg/ml. The protocol: DNA fragmentation was determined by a method reported previously (reference 3). Briefly, cells were treated in 1 ml lysis buffer (0.01M Tris. HCL pH 8.0, 0.01M NaCl, 0.01M EDTA pH 8.0 and 5% sodium dodecyl sulfate) containing 1 μg/ml protease K for 1 h at 50° C. The resulting products were extracted with phenol and chloroform:isoamylalcohol (24:1, v/v), and precipitated with ethanol followed by centrifugation at 7800 g (Sorvall RC-5B Du Pont, Newtown, Conn.). The ethanol was removed and the dry pellets of nucleic acid were resuspended in 10 mM Tris-HCL/1 mM EDTA solution. When DNA content was determined spectrophotometrically all samples had A260/A280 ratio≧2. The DNA samples were then treated with RNase (Sigma, St. Louis, Mo.) at a final concentration of 0.1 μg/μl for 20 min at 37° C. before gel loading. Approximately 4 μg size DNA aliquots were loaded onto horizontal agarose gel (1.5%) prepared with 1% ethidium bromide. Electrophoresis was performed at 75 volts for 2 h and the DNA patterns were visualized with UV light.
[…] After incubation, cells were washed twice in PBS. Cell pellets were resuspended in drug-free medium and incubated for 48 hr at 37° C. Cell viability, morphology, mitotic spindles, cell cycle distribution and apoptosis were determined 24 hr and 48 hr post pulse exposure.
Soluble DNA from cells was extracted by the method reported previously (14). Briefly, after washing with PBS, cells were treated in 1 ml lysis buffer (0.01 M Tris.HCL pH 8.0, 0.01 M NaCl, 0.01M EDTA pH 8.0 and 5% sodium dodecyl sulfate) containing 1 μg/ml proteinase K for 1 hr at 50° C. The resulting products were extracted with phenol and chloroform:isoamylalcohol (24:1, v/v), and precipitated with ethanol followed by centrifugation at 7800 g (Sorvall RC-5B Du Pont, Newtown, Conn.). The ethanol was removed and the dry pellet of nucleic acid was resuspended in 10 mM Tris-HCL/1 mM EDTA solution. DNA content was determined spectrophotometrically by measuring absorption at 260 nm (A260). All samples, had A260/A280≧2. The DNA samples were then treated with RNase (Sigma, St. Louis, Mo.) at a final concentration of 0.1 μg/l for 20 min at 37° C. before gel loading. The DNA sample (4 μg) was analyzed in 1.5% horizontal agarose gel prepared with 1% ethidium bromide. Electrophoresis was performed at 75 volts for 2 hours and the DNA migration was visualized under UV light.

The mark [6] stands for this setting: CEM cells, concentration killing 90% of the cells, read-out: ID90 (the source's name).

With “3-bromopropionylamino benzoylurea [Compound 3-BPABU]”, the “cytotoxic activity (ID50 level) compared with 3-BAABU” value in data set [1] (CEM leukemic cells) was “cytotoxic activity was eliminated”. Moreover, in data set [2], the “Activities of inducing Apoptosis” value was “− (−:<10%)”, the “Activities of inducing Mitotic block” value is on record as “− (−:<10%)” and the “Activities of inducing Necrosis” value is on record as “− (−:<10%)”.
`NC(=O)NC(=O)c1ccc(NC(=O)CI)cc1` [9 (4-position), 4-iodoacetoamido, benzoylurea]: the IC90 in data set [1] (setting [6]) was 0.04 µg/mL and 112 nM. Moreover, in data set [2] (CEM cells), the “Mitotic arrest, %” value is recorded as below 10%.
Regarding `NC(=O)NC(=O)c1ccc(NC(=O)CBr)cc1` [Compound 4-BAABU, 4-bromoacetylamino benzoylurea], in data set [1] (setting [6]), the IC90 was 0.15 µg/mL and 497 nM. Also, half-maximal inhibition in data set [1] (CEM leukemic cells) (IC50) required 230 nM. The “Mitotic arrest, %” value in data set [2] (CEM cells) is below 10%. Moreover, in data set [2], the “morphological effect on leukemic cells” value is recorded as “necrotic cell death”, the “Activities of inducing Apoptosis” value is “− (−:<10%)”, the “Activities of inducing Mitotic block” value was “− (−:<10%)” and the “Activities of inducing Necrosis” value is listed as “++++ (++++: >75%)”.
As to `NC(=O)NC(=O)c1cccc(NC(=O)CF)c1` [Compound 6, 3-Fluoroacetoamido, benzoylurea], the “effect on microtubule assembly” value in data set [3] was “no effect”. In data set [4], the “shift of the cell population from G0/G1 (2N) to G2/M (4N), DNA profile” value was “undetectable change; also recorded: identical to that of the untreated control”. In addition, in data set [1] (read-out: ID90), the IC90 is > 2.5 µg/mL and > 10 µM. Moreover, in data set [1] (at a concentration as high as 10 μM), the “cytotoxicity against human leukemic cells (CEM)” value is reported as “no cytotoxicity”. The “mitotic arrest (blocking) effect, morphological appearance” value in data set [2] (CEM cells, 24 h, compound 8 at 0.025 μg/ml, compound 9 at 0.005 μg/ml) is reported as “failed to induce mitotic arrest”. Moreover, the “Mitotic arrest, %” value in data set [2] (CEM cells) is given as below 10%. In data set [2] (CEM cells, after 24 hours treatment, 2.5 μg/ml), the “interference with the cell cycle” value is listed as “virtually no interference”. The “apoptosis, DNA fragmentation on gel electrophoresis” value in data set [5] is reported as “did not induce apoptosis”.
Take `CCOC(=O)c1cccc(NC(=O)CCl)c1` [Compound 10, Ethyl-3-chloroacetoamido, benzoate]: the IC90 in data set [1] (setting [6]) is 0.82 µg/mL and 3.39 µM. The “Mitotic arrest, %” value in data set [2] (CEM cells) is recorded as below 10%.
Regarding `CCOC(=O)c1cccc(NC(=O)CBr)c1` [Compound 11, Ethyl-3-bromoacetoamido, benzoate], in data set [1] (CEM leukemic cells), the “fold increase of ID50 relative to 3-BAABU” value is 10 fold and the IC50 is 590 nM. The IC90 in data set [1] (setting [6]) is 0.18 µg/mL and 740 nM. In addition, in data set [2] (CEM cells), the “Mitotic arrest, %” value is reported as below 10%. Further, in data set [2], the “morphological effect on leukemic cells” value is reported as “caused apoptosis”, the “Activities of inducing Apoptosis” value is on record as “++++ (++++: >75%)”, the “Activities of inducing Mitotic block” value was “− (−:<10%)” and the “Activities of inducing Necrosis” value was “− (−:<10%)”.

A word on the IC50: it is the point on the concentration scale where inhibition reaches its midpoint.
